Laboratory results published in patent US20080050443A1, “Fast Release Composition Including Melt Granules of a Moisture Sensitive Drug and Process for Manufacturing Thereof” (priority 2004, published 2008).

Assay: Moisture sensitivity of Compound I
Format: physicochemical
Description: This monohydrochloride of formula (I) (hereinafter, “Compound I”) is described in scheme 2 of Villhauer et al., J Med Chem, Vol. 45, No. 12, pp. 2362-65 (2002), which is hereby incorporated by reference. Compound I is a moisture-sensitive therapeutic compound. At humidities above 75%, Compound I absorbs moisture and begins to deliquesce; moreover, Compound I undergoes both acidic and basic degradation with cyclic imidate (“CI”) being the major degradation product.

For `Cl.N#Cc1ccc(NCCNCC(=O)N2CCC[C@H]2C#N)nc1` [Compound I, [S]-1-[2-(5-cyano-2-pyridinylamino)ethylamino]acetyl-2-pyrolidine carbonitrile monohydrochloride], the “humidity at which Compound I absorbs moisture and begins to deliquesce” value was “above 75%”.
